Measurements published in paper PMC12677607, “Identification of a Pair of Linear or Cyclic Naturally Inspired Bifunctional Lipopeptide Antibiotics That Overcome Antimicrobial Resistance” (Advanced Science, 2025).
≈ marks a conversion by molar mass, not a printed value. Square brackets hold non-standard residues; d marks the D form. Peptide text beside a SMILES is read from it. * marks the point of attachment. X2 = NC[C@H](Cc1ccc(O)cc1)N*; X1 = CC(C)[C@H](O)CC(=O)*; βAla = NCCC(=O)O

Legend:
Gram negative bacteria = test system: Gram negative bacteria; set-up: method as in 2 sources, one per row (each row's own in cited_ref): ref 27 (a number printed in a supplementary file, which may have a reference list of its own: not looked up in the article's list) ||| ref 26 = [26]; PMID 24281661; doi:10.1038/ja.2013.121; 26 S. Kozuma , Y. Hirota‐Takahata , D. Fukuda , N. Kuraya , M. Nakajima , O , A , J. Antibiot. (Tokyo) 2014 , 67 , 237 . 24281661 10.1038/ja.2013.121; settings: cited from earlier work
Excerpt: All 17 synAQUs were initially assayed for antimicrobial activity against four Gram‐negative bacteria, four Gram‐positive bacteria, and one fungal pathogen.

[1] = test system: Gram negative and positive bacteria; set-up: method as in 2 sources, one per row (each row's own in cited_ref): ref 49 (a number printed in a supplementary file, which may have a reference list of its own: not looked up in the article's list) ||| ref 50 (a number printed in a supplementary file, which may have a reference list of its own: not looked up in the article's list); settings: Figure S20, known paired peptides; cited from earlier work
[2] = set-up: method as in earlier work; settings: Figure S20; cited from earlier work
[3] = set-up: method as in earlier work; settings: Figure S20; cited from earlier work; remark: listed apart in the source
B. subtilis ATCC 23857 = assay: MIC assay (broth micro-dilution); assay type: cell-based; settings: Table S11; LB broth, 37 °C, 16 h, n = 2
Description: (§1) All MIC assays were performed two independent times (n = 2) in 96‐well plates using a broth micro‐dilution method. The lowest concentration of that inhibited visible microbial growth was recorded as the MIC value.
(§2) For most of bacterial strains, overnight cultures were diluted 5000‐fold in LB broth. For E. faecium and S. aureus, overnight cultures were diluted 1000‐ and 10000‐fold in LB broth, respectively. 100 µL of diluted cells was mixed with 100 µL of LB broth containing each peptide ranging from 64 to 0.125 µg mL^−1 at 2‐fold serial dilutions.

Escherichia coli DH5α = assay: MIC assay (broth micro-dilution); assay type: cell-based; settings: Table S11; LB broth, 37 °C, 16 h, n = 2
Description: as §1, §2

Shigella Castellani LXX = assay: MIC assay (broth micro-dilution); assay type: cell-based; settings: Table S11; LB broth, 37 °C, 16 h, n = 2
Description: as §1, §2

[4] = test system: Acinetobacter baumannii 1104008; assay: microbe, parasite or virus in culture; assay type: cell-based; settings: Table S11; LB broth, 37 °C, 16 h, n = 2
Method in brief: (§3)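 Growth inhibition read visually; MIC taken as lowest inhibitory concentration. LB medium; inocula from overnight cultures diluted 5000-fold, S. aureus 10000-fold. Peptide range 64 to 0.125 µg mL^−1 (2-fold, pre-mix), two independent determinations.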

[5] = test system: Acinetobacter baumannii ATCC 17978; assay: microbe, parasite or virus in culture; assay type: cell-based; settings: ATCC 17978, 16 h
Method in brief: as §3

[6] = test system: Acinetobacter baumannii ATCC 19606; assay: microbe, parasite or virus in culture; assay type: cell-based; settings: ATCC 19606, 16 h
Method in brief: as §3

[7] = test system: Acinetobacter baumannii P53; assay: microbe, parasite or virus in culture; assay type: cell-based; settings: Table S11; LB broth, 37 °C, 16 h, n = 2
Method in brief: as §3

Enterococcus faecalis 26 = assay: microbe, parasite or virus in culture; assay type: cell-based; settings: 26, 16 h
Method in brief: as §3

Enterococcus faecalis 28 = assay: microbe, parasite or virus in culture; assay type: cell-based; settings: 28, 16 h
Method in brief: as §3

[8] = test system: Enterococcus faecalis ATCC 29212; assay: microbe, parasite or virus in culture; assay type: cell-based; settings: ATCC 29212, 16 h
Method in brief: as §3

[9] = test system: Enterococcus faecium 35682; assay: microbe, parasite or virus in culture; assay type: cell-based; settings: 35682, 16 h
Method in brief: as §3

[10] = test system: Klebsiella pneumoniae ATCC 13883; assay: microbe, parasite or virus in culture; assay type: cell-based; settings: ATCC 13883, 16 h
Method in brief: as §3

[11] = test system: Klebsiella pneumoniae CRKP 5452; assay: microbe, parasite or virus in culture; assay type: cell-based; settings: Table S11; LB broth, 37 °C, 16 h, n = 2
Method in brief: as §3

[12] = test system: Klebsiella pneumoniae CRKP HS11286; assay: microbe, parasite or virus in culture; assay type: cell-based; settings: CRKP HS11286, 16 h
Method in brief: as §3

[13] = test system: Klebsiella pneumoniae NCTC 5056; assay: microbe, parasite or virus in culture; assay type: cell-based; settings: NCTC 5056, 16 h
Method in brief: as §3

[14] = test system: Pseudomonas aeruginosa ATCC 9027; assay: microbe, parasite or virus in culture; assay type: cell-based; settings: ATCC 9027, 16 h
Method in brief: as §3

[15] = test system: Pseudomonas aeruginosa PAO1; assay: microbe, parasite or virus in culture; assay type: cell-based; settings: PAO1, 16 h
Method in brief: as §3

[16] = test system: Salmonella enterica ATCC 14028; assay: microbe, parasite or virus in culture; assay type: cell-based; settings: ATCC 14028, 16 h
Method in brief: as §3

[17] = test system: Salmonella typhimurium LXX; assay: microbe, parasite or virus in culture; assay type: cell-based; settings: murium LXX, 16 h
Method in brief: as §3

[18] = test system: Staphylococcus aureus ATCC 25923; assay: microbe, parasite or virus in culture; assay type: cell-based; settings: ATCC 25923, 16 h
Method in brief: as §3

[19] = test system: Staphylococcus aureus ATCC 6538; assay: microbe, parasite or virus in culture; assay type: cell-based; settings: ATCC 6538, 16 h
Method in brief: as §3

[20] = test system: Staphylococcus aureus Newman; assay: microbe, parasite or virus in culture; assay type: cell-based; settings: Newman, 16 h
Method in brief: as §3

[21] = test system: Staphylococcus aureus USA300; assay: microbe, parasite or virus in culture; assay type: cell-based; settings: Table S11; LB broth, 37 °C, 16 h, n = 2
Method in brief: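 Broth microdilution in LB, run in two independent repeats. Overnight cultures were diluted 5000-fold, except S. aureus at 10000-fold, and mixed with peptide-containing LB (2-fold series, 64 to 0.125 µg mL^−1 before mixing). MIC is the lowest concentration that prevented visible growth.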

[22] = test system: Streptococcus mutans ATCC 25175; assay: microbe, parasite or virus in culture; assay type: cell-based; settings: ATCC 25175, 16 h
Method in brief: as §3

[23] = test system: Streptococcus pyogenes ATCC 19615; assay: microbe, parasite or virus in culture; assay type: cell-based; settings: Table S11; LB broth, 37 °C, 16 h, n = 2
Method in brief: as §3

[24] = test system: Vibrio alginolyticus XSBZ14; assay: microbe, parasite or virus in culture; assay type: cell-based; settings: 16 h
Method in brief: as §3

[25] = test system: Candida albicans ATCC 10231; assay: MIC assay (YPD broth); assay type: cell-based; settings: Table S11; YPD broth, 30 °C, 16 h, n = 2
Description: as §1
(§4) For fungal strains, overnight cultures were diluted 2000‐fold in YPD broth. 100 µL of diluted cells was mixed with 100 µL of YPD broth containing each peptide ranging from […] 64 to 0.125 µg mL^−1 at 2‐fold serial dilutions.

[26] = test system: Candida albicans ATCC 64550; assay type: cell-based; settings: ATCC 64550, 16 h
Description: as §1, §4

In the case of pedopeptin B, the anti-Gram-negative activity (Gram negative bacteria; in words) is listed as “potent anti‐Gram‐negative activity”.

In the case of Bacaucin-1, the antibacterial activity [1] is listed as “Specific anti-bacterial activity against MR S A”, the hemolytic activity [2] is listed as “No hemolytic activity” and the cytotoxic activity [3] is listed as “No cytotoxic activity”.

In the case of Brevicidine, the “MIC, anti-Gram negative activity” value (Gram negative bacteria; Figure S20, known paired peptides) is given as 2 to 4 µg/mL.

In the case of `CC[C@H](C)[C@H](NC(=O)[C@@H](NC(=O)[C@@H](C)NC(=O)[C@H](C)NC(=O)[C@@H](NC(=O)C[C@@H](O)C(C)C)C(C)C)[C@@H](C)CC)C(=O)NCCC(=O)N[C@@H](CC(C)C)C(=O)N[C@H](C)C(=O)N[C@H](C(=O)N[C@H](CN)Cc1ccc(O)cc1)[C@@H](C)CC` [synAQU4-L] (X1-VA[dA]II[βAla]L[dA]I-X2), the “MIC Bacllussubtilis ATCC 23857” value (B. subtilis ATCC 23857) is reported as greater than 64 µg/mL, the “MIC Escherichia coli DH5α” value (Escherichia coli DH5α) is reported as greater than 64 µg/mL and the “MIC Shigella Castellani LXX” value (Shigella Castellani LXX) is reported as greater than 64 µg/mL. The “MIC Acinetobacter baumannii 1104008” value [4] was greater than 64 µg/mL, the “MIC Acinetobacter baumannii ATCC 17978” value [5] was greater than 64 µg/mL and the “MIC Acinetobacter baumannii ATCC 19606” value [6] was greater than 64 µg/mL. For the same molecule, the “MIC Acinetobacter baumannii P53” value [7] was greater than 64 µg/mL, the “MIC Enterococcus faecalis 26” value (Enterococcus faecalis 26) was greater than 64 µg/mL and the “MIC Enterococcus faecalis 28” value (Enterococcus faecalis 28) was greater than 64 µg/mL. The “MIC Enterococcus faecalis ATCC 29212” value [8] was greater than 64 µg/mL, the “MIC Enterococcus faecium 35682” value [9] was greater than 64 µg/mL and the “MIC Klebsiella pneumoniae ATCC 13883” value [10] was greater than 64 µg/mL. For the same molecule, the “MIC Klebsiella pneumoniae CRKP 5452” value [11] was greater than 64 µg/mL, the “MIC Klebsiella pneumoniae CRKP HS11286” value [12] was greater than 64 µg/mL and the “MIC Klebsiella pneumoniae NCTC 5056” value [13] was greater than 64 µg/mL. For the same molecule, the “MIC Pseudomonas aeruginosa ATCC 9027” value [14] was greater than 64 µg/mL, the “MIC Pseudomonas aeruginosa PAO1” value [15] was greater than 64 µg/mL and the “MIC Salmonella enterica ATCC 14028” value [16] was greater than 64 µg/mL. For the same molecule, the “MIC Salmonella typhimurium LXX” value [17] was greater than 64 µg/mL, the “MIC Staphylococcus aureus ATCC 25923” value [18] was greater than 64 µg/mL and the “MIC Staphylococcus aureus ATCC 6538” value [19] was greater than 64 µg/mL. For the same molecule, the “MIC Staphylococcus aureus Newman” value [20] was greater than 64 µg/mL, the “MIC Staphylococcus aureus USA300” value [21] was greater than 64 µg/mL and the “MIC Streptococcus mutans ATCC 25175” value [22] was 16 µg/mL (≈ 14.3 µM). For the same molecule, the “MIC Streptococcus pyogenes ATCC 19615” value [23] was 4 µg/mL (≈ 3.58 µM), the “MIC Vibrio alginolyticus XSBZ14” value [24] was greater than 64 µg/mL and the “MIC Candida albicans ATCC 10231” value [25] was greater than 64 µg/mL. For the same molecule, the “MIC Candida albicans ATCC 64550” value [26] was greater than 64 µg/mL.
